Data reported in paper PMC10254045, “Elaboration of the Effective Multi-Target Therapeutic Platform for the Treatment of Alzheimer’s Disease Based on Novel Monoterpene-Derived Hydroxamic Acids” (International Journal of Molecular Sciences, 2023).

What was measured:
[1] = test system: 5xFAD transgenic mice brain; test: Histology of β-amyloid deposits in brain samples (Congo Red); format: in vivo; conditions: 21-day administration; cortex, midbrain and hippocampus zone; vs 5xFAD
Description: As part of the in vivo testing of the biological activity of the leader compound, a transgenic mouse model with Alzheimer’s disease 5xFAD at the age of 13 months was used. This line expresses two human genes: APP (amyloid peptide precursor protein gene) with three types of mutations (Swedish (K670N, M671L), Florida (I716V) and London (V717I)), as well as the presenilin 1 gene with mutations (M146L and L286V) characteristic of this disease. Clinically healthy wildtype single-litter mice C57Bl6/j (n = 8) were used as a control group. Transgenic 5xFAD mice were randomly divided into two groups: (1) animals receiving intraperitoneal injections of hydroxamic acid 35a at a dose of 15 mg/kg (10% DMSO + NaCl) for three weeks—the 5xFAD + 35a group (n = 8) and (2) mice receiving an equivalent volume of solvent—the group 5xFAD (n = 8). All animals were kept in standard vivarium conditions at a temperature of 22 ± 1 °C and a humidity of 55% indoors with a 12-h light–dark cycle. The animals had no restrictions in the consumption of water and food. […]
After cervical dislocation, the half of brain was dissected and fixed with Carnoy’s solution (ethanol–chloroform–glacial acetic acid, 6:3:1) for 17 h. […] The stained deposits were evaluated using a ZEISS LSM 880 laser scanning microscope (Carl Zeiss, Oberkochen, Germany) in the tile scan mode. […]

[2] = DPPH radical scavenging activity; conditions: Trolox equivalent; compounds and Trolox 100 µM
Description: DPPH is a stable chromogen radical, which is widely used to assess the antioxidant activity of biological objects, in particular when searching for potential therapeutic agents used to maintain the redox balance in the body and treat pathologies associated with the action of free radicals. In turn, the oxygen radical absorbance capacity (ORAC) analysis is based on the removal by potential antioxidants of peroxyl radicals generated by AAPH (2,2’-axobis-2-methyl-propanimidamide, dihydrochloride), preventing the degradation of the fluorescein probe.
The measurement of the antiradical activity of synthesized hydroxamic acids was carried out using the method described in [150]. The studied compounds were introduced into the wells of a 96-well black tablet (the final concentration was 100 microns), after which a freshly prepared solution of 2,2-diphenyl-1-picrylhydrazyl (Sigma Aldrich, St. Louis, Missouri, USA) was added. After the incubation time had elapsed, the DPPH radical-scavenging activity was measured using a multifunctional Cytation™3 tablet analyzer (BioTek Instruments, Inc., Winooski, VT, USA) at λ = 517 nm by the difference in the reduction of the DPPH radical peak between control samples containing an equivalent volume of solvent and samples with the substances under study.

In the case of `C=C(C)[C@@H]1CC=C(CNC(=O)/C=C/c2ccc(C(=O)NO)cc2)CC1` [Compound 35a, (S,E)-N-hydroxy-4-(3-oxo-3-(((4-(prop-1-en-2-yl)cyclohex-1-en-1-yl)methyl)amino)prop-1-en-1-yl)benzamide], the “number of β-amyloid aggregates in the brain” value [1] is reported as “decreased significantly” and the “DPPH value (TE)” value [2] is reported as 0.88 TE.
